Source: patent publication US20240293337A1, “USE OF DOXERCALCIFEROL TO TREAT AND/OR PREVENT UTERINE FIBROIDS OR POLYCYSTIC OVARY SYNDROME” (priority 2023, published 2024)

Key:
[1] = Serum chemistry in PCOS mice; assay type: in vivo, C57BL/6 mice; details: after five weeks of treatment, most of the serum levels
ovary = assay: Ovarian follicle counts in PDX UF mice (H&E histology); assay type: in vivo, NOD/SCID mice; details: vs untreated control
Method: (§1) After xenograft mice undergo intraperitoneal injection of doxercalciferol (300 ng/kg, 3 times per week) or saline for 6 weeks. Body weight is monitored weekly during doxercalciferol treatment. Six weeks after doxercalciferol treatment insulin resistance is assessed using GTT and then mice are anesthetized and blood is collected to measure liver enzyme and AMH levels, ovary tissue is removed for histological analysis, total RNA is extracted for sequencing, and tumor size is measured with a digital caliper.
Ovary tissue is collected and fixed in 4% paraformaldehyde. Tissue sections are stained with hematoxylin-eosin (H&E). Histological analyses are performed.

[2] = test system: letrozole induced polycystic ovary syndrome (PCOS) mouse models; assay: Breeding experiments in PCOS mice; assay type: in vivo, C57BL/6 mice
Method: Five weeks after placebo or LTZ pellet implantation, mice undergo intraperitoneal injection of doxercalciferol (300 ng/kg) or saline 3 times per week for 6 weeks. Six weeks after doxercalciferol treatment, the mice are anesthetized and ovary, uterus, gonadal white fat, kidney, and liver tissue are collected. Each of these tissues are fixed in 4% paraformaldehyde for further histological analysis.
After doxercalciferol treatment, 6 mice per group from the PCOS experiments are randomly selected for the breeding experiment. One male C57BL/6 breeder mouse is used for every two female mice. The male and female mice are caged together for 10 days. Mating is determined by the presence of sperm plug in the vagina. The pregnancy rate, required time for pregnancy, average number of pups, total live and dead pups, and mouse pup weight and growth rate at birth and days 5 and 10 postpartum are measured.

H295R cells = assay: Testosterone production in H295R cell conditioned media (ELISA); assay type: cell-based, human; details: 24 hours
Method: H295R cells are subcultured in T75 flasks for 24 hours. Cells are then treated for 24 hours with serum free basal media as a control or doxercalciferol at 1 nM, 10 nM, or 100 nM diluted in basal media (serum-free) at a 1:1 ratio. After the incubation period, cells are imaged and analyzed for morphology and cell count. Cells are then collected for analysis of steroidogenesis-related gene expression. Cell culture media are collected and used for testosterone quantification using ELISA based Testosterone Parameter Assay Kit (R&D system) per the manufacturer's protocol. The testosterone level is quantified using a multimode microplate reader system, Varioskan LUX Multimode Microplate Reader (Thermo Fisher).

[3] = test system: letrozole induced polycystic ovary syndrome (PCOS) mouse models; assay: Histology (H&E) of PCOS mouse tissues; assay type: in vivo, C57BL/6 mice; details: after five weeks of treatment
Method: […] […] Each of these tissues are fixed in 4% paraformaldehyde for further histological analysis. Ovary, uterus, gonadal white fat, kidney, and liver tissue are collected and fixed in 4% paraformaldehyde. Tissue sections are stained with hematoxylin-eosin (H&E). Histological analyses are performed using Asperio ImageScope (Leica Biosystem, Wetzlar, Germany).

[4] = Body weight change in PDX UF mice; assay type: in vivo, NOD/SCID mice; details: 300 ng/kg i.p. 3 times per week, 6 weeks
Method: as §1

SW872 cells = assay: SW872 immortalized adipocyte model, cell morphology and cell number after 24 h treatment; assay type: cell-based, human; details: 100 nM
Method: Human liposarcoma SW872 are used as an in vitro cell culture model of adipocytes to assess adipocyte proliferation. SW872 cells are purchased from (ATCC). These cells are isolated from a surgical specimen of a […] removed from a donor. The cells are cultured per the recommended guidelines. The cells are subcultured at a ratio of 1:4, resulting in a cell density of approximately 1×10^6 in T75 flasks. SW872 cells are subcultured in T75 flasks for 24 hours. Cells are then treated for 24 hours with serum free basal media as a control or doxercalciferol at 1 nM, 10 nM, or 100 nM diluted in basal media (serum-free). After the incubation period, cells are imaged and analyzed for morphology and cell count. Cells are then collected for analysis of adipogenesis-related gene expression and cell culture media are collected for analysis of obesity related cytokines.

[5] = test system: patient derived xenograft (PDX) mouse model of uterine fibroids (UF); assay: Tumor growth in patient derived xenograft (PDX) mouse model of uterine fibroids; assay type: in vivo, NOD/SCID mice; details: PDX UF mice, 300 ng/kg i.p. 3 times per week, 6 weeks
Method: Female NOD/SCID are housed in a vivarium for 1 week under specific pathogen-free conditions. The animal experiment protocol for this study is approved, and all animal experiments are performed in compliance with policies and guidelines for use of laboratory animals. UF samples are obtained from African-American female patients with UF (n=4). This human UF tissue is xenografted into female mice that have been hormonally supplemented with progesterone and estradiol (n=2 mice/patient). Tumor size is measured at implantation. After xenograft mice undergo intraperitoneal injection of doxercalciferol (300 ng/kg, 3 times per week) or saline for 6 weeks. Body weight is monitored weekly during doxercalciferol treatment. Six weeks after doxercalciferol treatment insulin resistance is assessed using GTT and then mice are anesthetized and blood is collected to measure liver enzyme and AMH levels, ovary tissue is removed for histological analysis, total RNA is extracted for sequencing, and tumor size is measured with a digital caliper.

[6] = Glucose tolerance test in PDX UF mice; assay type: in vivo, NOD/SCID mice; details: 6 weeks after treatment, vs control
Method: as §1
Glucose tolerance testing is performed on PDX UF mice 6 weeks after doxercalciferol treatment. Mice are tested either without fasting or after fasting for 16 h (5 p.m. to 9 a.m.), with free access to drinking water, after which they receive an intra-peritoneal (i.p.) injection of D-glucose (2.0 g/kg body weight). Blood glucose level is measured at 0, 15, 30, 60, 90, and 120 min following glucose injection using a Bayer glucose monitor (Roche Diagnostics Corp, IN, USA).

[7] = Serum measurements in PDX UF mice (liver enzymes, calcium, AMH); assay type: in vivo, NOD/SCID mice
Method: as §1
Blood is collected from all groups by cardiac exsanguination under isoflurane anesthesia: serum is separated and stored at −80° C. Serum levels are measured for AMH, ALT, and total bilirubin.

[8] = PCOS mice, 300 ng/kg i.p. 3 times per week for 6 weeks

C=C1/C(=C\C=C2/CCC[C@]3(C)[C@@H]([C@H](C)/C=C/[C@H](C)C(C)C)CC[C@@H]23)C[C@@H](O)C[C@@H]1O [doxercalciferol]
serum levels vs reference range of C57BL/6 mice [1]: overlap with the reference range | number of follicles at the primordial, primary, secondary, or preantral phases (ovary): does not significantly affect | total number of follicles in the ovary (ovary): does not significantly affect | average number of live pups, vs control mice [2, 8]: no significant difference | average number of live pups, vs untreated PCOS [2, 8]: increased the average number of live pups | required time for pregnancy after introduction to a potential mate [2, 8]: about 2 weeks | pregnancy rate ([2]; PCOS mice, 300 ng/kg i.p. 3 times per week for 6 weeks (PCOS 20%, control 83.3%)): 50% | total number of live pups, vs untreated PCOS ([2]; PCOS mice, 300 ng/kg i.p. 3 times per week for 6 weeks, not to the levels of control mice): increases the total number of live pups | average weight of pups, vs control mice ([2]; pups of treated PCOS mice, 5 days postpartum): significantly lower | average weight of pups, vs control and PCOS ([2]; pups of treated PCOS mice, 10 days postpartum): no significant difference | average weight of pups, vs control mice ([2]; pups of treated PCOS mice, at birth): significantly lower | growth of pups, vs control and PCOS ([2]; pups of treated PCOS mice, at birth, 5 days and 10 days postpartum): no significant difference | Testosterone production (H295R cells; 1 nM): significantly decreased | Testosterone production (H295R cells; 10 nM): not significantly changed | Testosterone production (H295R cells; 100 nM): significantly decreased | kidney and liver histology ([3]; PCOS mice): no significant evidence of tissue damage or inflammation | ovary histology (follicles) ([3]; PCOS mice, untreated PCOS mice have numerous cysts): good numbers of follicles | gonad white fat histology, adipocyte size vs untreated PCOS mice [3]: reduced adipocyte size | uterus histology, vs untreated PCOS mice [3]: improved uterine epithelial cell organization | decrease in body weight [4]: 24% | cell morphology (SW872 cells): most cells being dead | cell number (SW872 cells; vs control): significant reduction in cells | tumor growth (significant reduction, down to) [5]: 55.6% | fasting glucose levels ([6]; fasting 16 h): tends to lower | glucose levels ([6]; without fasting): tends to lower | calcium levels vs reference range for NOD CB17-Prkdc^scid/NcrCrl mice [7]: overlap with the reference range | calcium level, Mean ([7]; N 4): 11.93 | ALT level ([7]; vs control): no significant effect | AMH serum levels ([7]; vs control): no significant effect | AST level ([7]; vs control): no significant effect | total bilirubin level ([7]; vs control): no significant effect
